Test results as given in PMC5224969 (ChemMedChem, 2016).
Where two headings read alike, the source gives them in different places.

Columns and labels:
BV-173 cells = assay: MTT cell viability assay, BV-173; format: cell-based, human; conditions: read-out: IC50 BV-173
K562 cells = assay: MTT cell viability assay, K562; format: cell-based, human; conditions: read-out: IC50 K562
Panc-1 cells = assay: MTT cell viability assay, Panc-1; format: cell-based, human
Abl [1] = target: T1, Abl (Homo sapiens, UniProt P00519); assay: standard P32 kinase assay, IC50, Abl; format: biochemical; conditions: for Net change in IC50 (%Dasatinib) Abl: compared to dasatinib; for IC50: read-out: IC50 Abl, P32 kinase assay, CrkL substrate, 200 μM ATP
Csk = Csk (Homo sapiens, UniProt P41240); assay: standard P32 kinase assay, IC50, Csk; format: biochemical; conditions: for Net change in IC50 (%Dasatinib) Csk: compared to dasatinib; for IC50: read-out: IC50 Csk, P32 kinase assay, polyE4Y substrate, 200 μM ATP
Src [2] = target: T2, Src (Homo sapiens, UniProt P12931); assay: standard P32 kinase assay, IC50, Src catalytic domain; format: biochemical; conditions: for Net change in IC50 (%Dasatinib) Src: compared to dasatinib; for IC50: read-out: IC50 Src, P32 kinase assay, polyE4Y substrate, 200 μM ATP
[3] = tested on: PTK panel (Abl, Csk, Src); assay: P32 kinase assay, average over the PTK panel; format: biochemical; conditions: average of Abl, compared to dasatinib
Abl [4] = target: T1, Abl; assay: screening at a fixed concentration against Abl; format: biochemical; conditions: fixed concentration 250 pM
Src [5] = target: T2, Src; assay: screening at a fixed concentration against Src; format: biochemical; conditions: fixed concentration 250 pM
[6] = stability in mouse plasma, LC/MS/MS; format: in vitro ADME

Sequence of Csk (P41240 whole entry, species assumed, the tested form may be a part): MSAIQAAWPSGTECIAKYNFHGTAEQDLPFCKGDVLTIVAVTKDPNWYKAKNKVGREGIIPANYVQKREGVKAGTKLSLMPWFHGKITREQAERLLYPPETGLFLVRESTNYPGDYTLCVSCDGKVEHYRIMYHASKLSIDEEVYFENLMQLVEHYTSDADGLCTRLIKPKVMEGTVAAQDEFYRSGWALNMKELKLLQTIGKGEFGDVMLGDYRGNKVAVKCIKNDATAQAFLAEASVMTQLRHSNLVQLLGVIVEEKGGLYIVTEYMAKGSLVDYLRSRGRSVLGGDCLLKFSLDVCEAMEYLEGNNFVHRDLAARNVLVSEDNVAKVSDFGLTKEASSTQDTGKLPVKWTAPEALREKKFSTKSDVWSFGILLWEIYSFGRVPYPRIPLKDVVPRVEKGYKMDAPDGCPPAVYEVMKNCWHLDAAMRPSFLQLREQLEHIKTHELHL
T1 sequence (P00519 whole entry, species assumed): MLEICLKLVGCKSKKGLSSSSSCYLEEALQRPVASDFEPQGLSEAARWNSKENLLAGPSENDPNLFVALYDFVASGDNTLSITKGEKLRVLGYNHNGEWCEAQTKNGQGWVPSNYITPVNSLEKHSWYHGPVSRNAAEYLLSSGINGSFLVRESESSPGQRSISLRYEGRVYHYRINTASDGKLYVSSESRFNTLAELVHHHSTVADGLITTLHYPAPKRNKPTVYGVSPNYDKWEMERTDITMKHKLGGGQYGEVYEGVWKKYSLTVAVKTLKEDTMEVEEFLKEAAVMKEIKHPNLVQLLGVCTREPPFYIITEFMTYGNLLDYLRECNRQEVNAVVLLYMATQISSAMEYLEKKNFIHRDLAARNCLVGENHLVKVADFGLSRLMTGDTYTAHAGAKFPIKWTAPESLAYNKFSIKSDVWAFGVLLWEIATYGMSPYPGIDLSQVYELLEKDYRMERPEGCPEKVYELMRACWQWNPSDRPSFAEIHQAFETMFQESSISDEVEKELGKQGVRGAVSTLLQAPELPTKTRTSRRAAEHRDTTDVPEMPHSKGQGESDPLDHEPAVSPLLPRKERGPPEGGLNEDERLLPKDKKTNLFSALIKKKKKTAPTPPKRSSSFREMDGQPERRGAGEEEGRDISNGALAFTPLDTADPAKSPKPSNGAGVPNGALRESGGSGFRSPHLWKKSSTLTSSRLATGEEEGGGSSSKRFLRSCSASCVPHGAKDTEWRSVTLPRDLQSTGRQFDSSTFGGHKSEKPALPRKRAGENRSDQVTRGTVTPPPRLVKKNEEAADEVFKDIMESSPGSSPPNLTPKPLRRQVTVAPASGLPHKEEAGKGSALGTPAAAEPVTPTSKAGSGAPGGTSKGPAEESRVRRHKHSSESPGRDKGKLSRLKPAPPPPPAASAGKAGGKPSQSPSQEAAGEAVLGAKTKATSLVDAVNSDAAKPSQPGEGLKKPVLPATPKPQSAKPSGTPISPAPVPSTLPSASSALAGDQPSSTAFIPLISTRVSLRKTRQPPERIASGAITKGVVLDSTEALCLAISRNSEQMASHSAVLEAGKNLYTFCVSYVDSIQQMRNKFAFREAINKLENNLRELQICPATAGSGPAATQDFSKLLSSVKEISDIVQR
T2 sequence (P12931 270-523 limits assumed, species assumed): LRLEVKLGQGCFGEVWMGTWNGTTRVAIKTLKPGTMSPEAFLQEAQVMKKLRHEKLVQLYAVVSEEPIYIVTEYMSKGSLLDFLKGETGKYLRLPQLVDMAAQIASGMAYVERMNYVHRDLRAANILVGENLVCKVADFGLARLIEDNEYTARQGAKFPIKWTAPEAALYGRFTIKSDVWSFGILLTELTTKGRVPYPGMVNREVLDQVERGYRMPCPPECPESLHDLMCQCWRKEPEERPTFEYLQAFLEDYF

Row | SMILES | IC50 (BV-173 cells; Homo sapiens, BV-173, 72 h) [nM] | IC50 (K562 cells; Homo sapiens, K562, 72 h) [nM] | IC50 (Panc-1 cells; Homo sapiens, PANC-1, 72 h, read-out: IC50 Panc-1) [nM] | Selectivity A/S (ratio of IC50 Abl over Src) (Abl [1]) | Net change in IC50 (%Dasatinib) Abl (Abl [1]) [%] | IC50 (Abl [1]) [nM] | Selectivity C/A (ratio of IC50 Csk over Abl) (Csk) | Selectivity C/S (ratio of IC50 Csk over Src) (Csk) | Net change in IC50 (%Dasatinib) Csk (Csk) [%] | IC50 (Csk) [nM] | Net change in IC50 (%Dasatinib) Src (Src [2]) [%] | IC50 (Src [2]) [nM] | Net change in IC50 (%Dasatinib) Avg [3] [%] | inhibition relative to dasatinib, Abl (Abl [4]) | inhibition relative to dasatinib, Src (Src [5]) | stability in mouse plasma ([6]; 0, 15, 30, 60, 120 min, dasatinib formation monitored) | T1/2 in mouse plasma ([6]; 0-120 min incubation) [min] | IC50 (BV-173 cells; MTT, 72 h) [nM] | IC50 (K562 cells; MTT, 72 h) [nM] | IC50 Panc-1 (Panc-1 cells; MTT, 72 h)
1 | Cc1nc(Nc2ncc(C(=O)Nc3c(C)cccc3Cl)s2)cc(N2CCN(CCO)CC2)n1 [Compound 1, N-(2-chloro-6-methylphenyl)-2-((6-(4-(2-hydroxyethyl)piperazin-1-yl)-2-methylpyrimidin-4-yl)amino)thiazole-5-carboxamide, reference compound] | < 0.0512 | < 0.0512 | 26300 | – | – | – | – | – | – | – | – | – | – | – | – | – | – | – | – | –
2 | Cc1nc(Nc2ncc(C(=O)Nc3c(C)cccc3Cl)s2)cc(N2CCN(CCOC(=O)[C@H](C)N)CC2)n1 [Compound 3] | – | – | – | > 7.7 | 285 | 3 | 7.0 | > 53.8 | 200 | 21 | 5 | < 0.39 | 163 | – | – | – | – | – | – | –
3 | CC(=O)OCCN1CCN(c2cc(Nc3ncc(C(=O)Nc4c(C)cccc4Cl)s3)nc(C)n2)CC1 [Compound 16] | – | – | – | > 6.4 | 169 | 2.1 | 2.6 | > 16.7 | −21 | 5.5 | −11 | < 0.33 | 46 | inhibited comparably to dasatinib | inhibited comparably to dasatinib | completely metabolized | < 5 | < 0.0512 | < 0.0512 | no activity
4 | CN[C@@H]1C[C@H]2O[C@@](C)([C@@H]1OC)n1c3ccccc3c3c4c(c5c6ccccc6n2c5c31)C(=O)NC4 [Staurosporine, staurosporine] | 4.77 | – | – | – | – | – | – | – | – | – | – | – | – | – | – | – | – | – | – | –
